From paper PMC10101151 (Bioorganic & medicinal chemistry letters, 2022)

Assays:
[1] = system: P. aeruginosa AR-0239; assay: colistin MIC in absence or presence of RMA; assay type: cell-based; conditions: for fold reduction of colistin MIC: compound at 1 μg/mL, AR-0239
[2] = system: P. aeruginosa AR-0257; assay: colistin MIC in absence or presence of RMA; assay type: cell-based; conditions: for fold reduction of colistin MIC: compound at 1 μg/mL, AR-0257
[3] = system: 8 different MDR Gram-negative bacteria; assay: colistin MIC across the panel of strains; assay type: cell-based; conditions: for Colistin MIC in the presence of compound, strains that contain the mcr genes: compound at 1 μg/mL
[4] = system: mitochondria; conditions: in vitro and in mice for 6p; cited from earlier work
[5] = system: E. coli AR-0493; assay: colistin MIC in absence or presence of RMA; assay type: cell-based; conditions: colistin alone; mcr-1
[6] = system: E. coli AR-0538; assay: colistin MIC in absence or presence of RMA; assay type: cell-based; conditions: colistin alone; mcr-2
[7] = system: S. Typhimurium AR-0539; assay: colistin MIC in absence or presence of RMA; assay type: cell-based, Salmonella Typhimurium; conditions: colistin alone; mcr-3
[8] = system: S. Typhimurium AR-0635; assay: colistin MIC in absence or presence of RMA; assay type: cell-based, Salmonella Typhimurium; conditions: colistin alone; mcr-4
[9] = system: K. pneumoniae AR-0497; assay: colistin MIC in absence or presence of RMA; assay type: cell-based; conditions: colistin alone; mcr-1
[10] = system: A. baumannii AR-0310; assay: colistin MIC in absence or presence of RMA; assay type: cell-based; conditions: colistin alone

Clc1cccc(Nc2nc3nonc3nc2Nc2cccc(Cl)c2)c1 [5l]
fold reduction of colistin MIC [1]: 4 folds | fold reduction of colistin MIC [2]: 4 folds | Colistin MIC in the presence of compound, strains that contain the mcr genes [3]: 1 to 2 µg/mL

Clc1ccc(Nc2nc3nonc3nc2Nc2ccc(Cl)cc2)cc1 [5m]
fold reduction of colistin MIC [1]: 4 folds | fold reduction of colistin MIC [2]: 4 folds | Colistin MIC in the presence of compound, strains that contain the mcr genes [3]: 1 to 2 µg/mL

FC(F)(F)Oc1ccc(Nc2nc3nonc3nc2Nc2ccc(OC(F)(F)F)cc2)cc1 [5p]
mitochondrial uncoupler activity [4]: poor uncoupler

Oc1nc2nonc2nc1Nc1ccc(OC(F)(F)F)cc1 [6p]
mitochondrial uncoupler activity [4]: one of the most potent uncouplers

Colistin
Colistin MIC [5]: 8 µg/mL | Colistin MIC [6]: 8 µg/mL | Colistin MIC [7]: 8 µg/mL | Colistin MIC [8]: 32 µg/mL | Colistin MIC [9]: 8 µg/mL | Colistin MIC [10]: 32 µg/mL | Colistin MIC ([1]; colistin alone): 4 µg/mL | Colistin MIC ([2]; colistin alone): 8 µg/mL | Colistin MIC, range over all strains ([3]; colistin alone, 8 strains): 4 to 32 µg/mL
